This passage reports IC50 results from PubChem BioAssay AID2305 (GlaxoSmithKline (GSK), 2010).

pIC50: −log10 of the molar value.

The assay relates to P. falciparum 3D7 growth, pLDH absorbance. Nature of the assay: P. falciparum 3D7 growth inhibition, dose response, strain 3D7 (AID 2305).

The term pIC50 denotes the IC50 on a negative log10 scale, so that one unit is a factor of ten. A high value points to a low IC50. For the compound `COc1ccc(NC(=O)/C=C/c2ccccc2Cl)cc1OCCN1CCC(N2CCCC2)CC1`, the pIC50 is 6.10.
For `COc1cc(C=CC(=O)N2CCC3(CC2)CC(=O)c2ccccc2O3)cc(OC)c1OC` the value was 6.12; for `C[C@H](Cc1ccc(C(=O)OCCOC(=O)c2ccc(C[C@@H](C)NC[C@H](O)c3cccc(C(F)(F)F)c3)cc2)cc1)NC[C@H](O)c1cccc(C(F)(F)F)c1`, 6.09.
For `COc1ccc(N2C(N)=NC(N)=NC2(C)C)cc1OC` the value was 6.51; for `COc1ccc2nccc([C@@H](O)CN3CCC(NCc4ccc5c(c4)NC(=O)C(C)S5)CC3)c2c1` (stereo partly specified), 6.70; for `Nc1ccnc2ccc(OCCCCCCc3ccccc3)cc12`, 6.28.
Then `Oc1cccc(C2CCCN(CCc3c[nH]c4ccccc34)C2)c1` (stereo unspecified), with 6.07; and `COc1ccc2nccc(NN=Cc3ccccc3F)c2c1`, with 6.21.
The compound `CCNc1cc(C(=O)N[C@@H](Cc2ccccc2)[C@H](O)CNCCCc2ccc(OC)cc2)cc(N2CCCC2=O)c1` showed a pIC50 of 6.25.
`Cc1[nH]n(-c2cccc(C(F)(F)F)c2)c(=O)c1-c1ccc(Cl)cc1` gave a pIC50 of 6.07.
`COc1ccc(CNCc2ccsc2)cc1-c1ccc(OC)c(S(=O)(=O)NCCN2CCCC2)c1` showed a pIC50 of 6.04.
For `O=C(NCCc1ccccc1)N(Cc1ccccc1-c1cccc(CNC2CCCC2)c1)C1CCN(Cc2ccccc2)CC1` the value was 6.08.
Then `O=C(Nc1ccc(C(F)(F)F)cc1)Nc1ccccc1N1CCNCC1`, with 6.30; and `O=c1cc(NCCCNCc2cc(Cl)cc(Cl)c2OCc2ccccc2)[nH]c2ccccc12`, with 5.99; and `O=C(NCCN1CCC(c2ccncc2)CC1)c1ccc(Nc2nccc(Nc3ccc(Oc4ccccc4)cc3)n2)cc1`, with 6.14.
Take `COc1ccc2nccc([C@H](O)CN3CCC(NCc4nc5c(F)cccc5[nH]4)CC3)c2c1`: the pIC50 was 6.15.
`Cc1[nH]c(-c2ccc(F)cc2)cc1C(=O)NC1CCN(Cc2ccccc2)CC1`: the pIC50 is 5.95.
For `Cc1cc(CN2CC[C@H](NC(=O)c3ccc(Cl)c(Cl)c3)C2)ccc1OC1CCN(Cc2ccccc2)CC1` the value was 6.04; for `COc1ccc2nccc([C@@H](O)CN3CCC(NC(=O)C(=Cc4ccc(C#N)cc4)c4ccc(-c5ccccc5)cc4)CC3)c2c1`, 6.13.
Then `Clc1cc(Cl)c2cc(CNCCCNc3ccc4ccccc4n3)[nH]c2c1`, with 6.47; and `Cc1nc2ccc3ccc(CNc4ccc(C(=O)N[C@@H](CCC(=O)O)C(=O)O)cc4)cc3c2c(=O)[nH]1`, with 6.74.
Then `OC(CNC1CCCCC1)c1ccc(Cl)c(Cl)c1` (stereo unspecified), with 6.15.
On to `O=C(c1ccc(-c2cnc3[nH]cc(-c4ccc(C(=O)N5CCOCC5)cc4)c3c2)cc1)N1CCOCC1`, for which the pIC50 is 6.00.
For `CCN(CCC1(c2ccc(Cl)c(Cl)c2)CN(C(=O)c2cc(OC)c(OC)c(OC)c2)CCO1)[C@@H]1C[C@@H]2c3ccccc3C[C@@H]21` (stereo partly specified) the value was 6.37.
For `CCc1ccc(-c2cnc(N)c3cc(-c4ccnc(N)n4)ccc23)cc1` the value was 5.87; for `COc1cccc(CNC[C@@H](O)[C@H](Cc2ccccc2)NC(=O)c2cc(OC(C)C)cc(N3CCCCS3(=O)=O)c2)c1`, 6.14; for `FC(F)(F)c1cc(CNCCCNc2nc3ccncc3[nH]2)ccc1Cl`, 6.00.
For `CN(C)C(=S)NN=Cc1cccc(O)c1O` the value was 6.06; for `Fc1ccc2c(NN=Cc3ccccc3F)ccnc2c1`, 6.25.
As to `CN(C)CCC1CCCc2ccc(NC(=O)Nc3cccc(Cl)c3Cl)cc21` (stereo unspecified), the pIC50 is 6.02.
Then `COc1cccc(NC(=O)Nc2ccc(-c3oc(C(=O)NCC(c4ccccc4)N(C)C)cc3-c3ccncc3)cc2)c1` (stereo unspecified), with 5.74; and `CCc1ccc(CN2CCC(CNC(=O)c3cc(-c4cccc(C(F)(F)F)c4)cs3)C2)cc1` (stereo unspecified), with 6.12; and `O=C(/C=C/c1ccc(Cl)c(Cl)c1)NCCCCCN1CCCN(C(=O)Nc2cc(F)cc(F)c2)CC1`, with 6.11.
For `CC(Cc1ccc(OC2CCCCC2)cc1)NCC(O)c1cccc(Cl)c1` (stereo unspecified) the value was 6.85; for `CCN1CCC(N(Cc2ccc(-c3ccc(C(F)(F)F)cc3)cc2)C(=O)Cn2c(CCc3cccc(F)c3F)cc(=O)c3ccccc32)C1` (stereo unspecified), 6.00; for `CN(C)CCCOc1ccc(-c2csc(NC(N)=NCc3ccccc3)n2)cc1`, 6.55.
For `O=C([C@H]1C[C@@H]1c1ccccc1)N(Cc1ccc(-c2ccc(CNCCc3ccccc3)cc2)cc1)C1CCNCC1` the value was 5.95; for `CN(C)CCOc1cc(NC(=O)Nc2ccc(-c3ccncc3)c3ccccc23)ccc1I`, 6.11.
In the case of `CC1CCN(c2nc(C(=O)Nc3ccc(F)cc3C(F)(F)F)c(C(C)C)s2)CC1`, the pIC50 was 6.64.
As to `COc1ccc(NS(=O)(=O)c2cccc(C(=O)Nc3ccc(C(F)(F)F)cc3)c2)cc1N1CCN(CC(C)C)CC1`, the pIC50 was 6.08.
For `Cc1cc(NCCCCCCCCNc2cc(C)nc3ccccc23)c2ccccc2n1` the value was 6.00; for `FC(F)(F)c1cccc(N2CCC(CN3CCC(c4c[nH]c5ccccc45)CC3)CC2)n1`, 6.01; for `Cc1cccc2[nH]c(-c3cccc(-c4cccc(CNCc5ccccc5)c4)c3)nc12`, 6.41.
Then `COc1ccc(C2c3cc(OC)c(OC)cc3C(=NO)C2C)cc1OC` (stereo unspecified), with 5.93; and `COc1ccc2nccc([C@@H](O)CN3CC[C@H](NCc4ccc5c(n4)NC(=O)CS5)[C@H](F)C3)c2c1`, with 6.04; and `O=C(NC1CCC(N2CCC(c3ccccc3C(F)(F)F)CC2)CC1)c1cc2ccccc2[nH]1` (stereo unspecified), with 6.28.
Then `CCCC1N=C(N)N=C(N)N1c1ccc(C)cc1` (stereo unspecified), with 7.00; and `c1ccc(Oc2ccc(Nc3ccnc4ccc(-c5ccccn5)cc34)cc2)cc1`, with 5.96; and `CS(=O)(=O)c1ccc(CNCc2cccc(-c3cccc(-c4nc5ccc(F)cc5[nH]4)c3)c2)cc1`, with 6.25.
`O=C(Cc1cccc(Cl)c1)Nc1ccc(N2CCC(NCc3ccc4ncccc4c3)CC2)cc1` showed a pIC50 of 5.91.
Then `Cn1nccc1C(=O)NCCNCc1ccc(-c2cccc(-c3nc4ccc(F)cc4[nH]3)c2)cc1`, with 6.66.
Then `CCCc1cc(NCC)nc(Nc2ccc(C)cc2)n1`, with 6.05; and `COc1cc2nc(N3CCC(CNC(=O)c4cc5ccccc5s4)CC3)nc(N)c2cc1OC`, with 6.54.
`O=C(/C=C/c1ccc(Cl)c(Cl)c1)NCCCCCN1CCCC(C(=O)Nc2cccc(Cl)c2)C1` (stereo unspecified) had a pIC50 of 6.05.
With `Cn1nccc1C(=O)NCCNCc1ccc(-c2ccc(-c3nc4ccccc4[nH]3)s2)cc1`, the pIC50 was 6.25.
For `COc1ccc2nc(C)cc(NCc3ccc4ccccc4c3)c2c1` the value was 6.33; for `COc1ccc2nc(N(CCCn3ccnc3)C(=O)C=Cc3cccs3)sc2c1`, 5.98.
With `Cc1noc(C)c1-c1ccc2c(Nc3ccccc3C(C)(C)C)c(C(=O)NCc3cccc4ccccc34)cnc2c1`, the pIC50 was 6.03.
Then `COc1cc2c(cc1OCCN1CCC(N3CCCCC3)CC1)N(C(=O)/C=C/c1ccccc1Cl)CC2`, with 6.55; and `CCn1ccc2c(N3CCCS3(=O)=O)cc(C(=O)N[C@@H](Cc3ccccc3)[C@H](O)CNC(C)(C)c3cccc(OC)c3)cc21`, with 7.40; and `COc1ccc2ncc(F)c(CCN3CCC(CNC(=O)C(=O)c4c[nH]c5ccccc45)CC3)c2n1`, with 6.41.
